Data reported in ChEMBL document CHEMBL4808200, “Identification of a Series of N-Methylpyridine-2-carboxamides as Potent and Selective Inhibitors of the Second Bromodomain (BD2) of the Bromo and Extra Terminal Domain (BET) Proteins” (J Med Chem, 2021).
Converted amounts (≈) assume the structure as drawn.

Assays:
[1] = Unbound clearance in Beagle dog at 0.5 mg/kg, iv administered as 1 hr infusion on day 1 and day 7 to achieve a target dose of 1 mg/kg by LC-MS/MS analysis; format: ADME, organism-based, Canis lupus familiaris; settings: in vivo, 168 h, dose 0.5-1 mg/kg, time 7 day
[2] = Clearance in Wistar Han rat at 1 mg/kg, iv administered as 1 hr infusion or 3 mg/kg, po administered via gavage by LC-MS/MS analysis; format: ADME, organism-based; settings: in vivo
[3] = Half life in Beagle dog at 0.5 mg/kg, iv administered as 1 hr infusion on day 1 and day 7 to achieve a target dose of 1 mg/kg by LC-MS/MS analysis; format: ADME, organism-based, Canis lupus familiaris; settings: in vivo, dose 0.5-1 mg/kg, time 7 day
[4] = Intrinsic clearance in human cryopreserved pooled hepatocytes at 0.5 uM measured up to 120 mins by LC-MS/MS analysis; format: ADME, tissue-based, Hepatocyte; settings: 2 h
[5] = Permeability of the compound at pH 7.4 by artificial membrane permeability assay; format: ADME; settings: PAMPA, read-out: permeability
[6] = Clearance in Beagle dog at 0.5 mg/kg, iv administered as 1 hr infusion on day 1 and day 7 to achieve a target dose of 1 mg/kg by LC-MS/MS analysis; format: ADME, organism-based, Canis lupus familiaris; settings: in vivo, dose 0.5-1 mg/kg, time 7 day
[7] = Solubility of the compound in pH 6.5 FaSSIF at […] measured after 16 hrs by HPLC analysis; format: physicochemical
[8] = Half life in Wistar Han rat at 1 mg/kg, iv administered as 1 hr infusion or 3 mg/kg, po administered via gavage by LC-MS/MS analysis; format: ADME, organism-based; settings: in vivo
physchem = settings: buffer, pH 7.4
[9] = Intrinsic clearance in Wistar Han rat cryopreserved pooled hepatocytes at 0.5 uM measured up to 60 mins by LC-MS/MS analysis; format: ADME, tissue-based, Hepatocyte; settings: 1 h
[10] = Volume of distribution at steady state in Wistar Han rat at 1 mg/kg, iv administered as 1 hr infusion or 3 mg/kg, po administered via gavage by LC-MS/MS analysis; format: ADME, organism-based; settings: in vivo, read-out: Vdss
[11] = Oral bioavailability in Wistar Han rat at 3 mg/kg administered via gavage by LC-MS/MS analysis; format: ADME, organism-based; settings: in vivo
[12] = Oral bioavailability in Beagle dog; format: ADME, organism-based, Canis lupus familiaris; settings: in vivo
[13] = Intrinsic clearance in Beagle dog cryopreserved pooled hepatocytes at 0.5 uM measured up to 120 mins by LC-MS/MS analysis; format: ADME, tissue-based, Canis lupus familiaris, Hepatocyte; settings: 2 h
[14] = Unbound clearance in Wistar Han rat at 1 mg/kg, iv administered as 1 hr infusion or 3 mg/kg, po administered via gavage by LC-MS/MS analysis; format: ADME, organism-based; settings: in vivo
[15] = Volume of distribution at steady state in Beagle dog at 0.5 mg/kg, iv administered as 1 hr infusion on day 1 and day 7 to achieve a target dose of 1 mg/kg by LC-MS/MS analysis; format: ADME, organism-based, Canis lupus familiaris; settings: in vivo, dose 0.5-1 mg/kg, time 7 day, read-out: Vdss
[16] = Clearance in Beagle dog at 0.5 mg/kg, iv administered as 1 hr infusion on day 1 and day 7 to achieve a target dose of 1 mg/kg by LC-MS/MS analysis relative to liver blood flow; format: ADME, organism-based, Canis lupus familiaris; settings: in vivo, 168 h, dose 0.5-1 mg/kg, time 7 day

| CL free [1] [mL/min/kg] | clearance [2] [mL/min/kg] | half-life [3] [min] | CLH [4] [mL/min/g] | Papp [5] [×10⁻⁶ cm/s] | clearance [6] [mL/min/kg] | solubility at 16 h [7] [µg/mL] | half-life [8] [min] | chromatographic logD (physchem) | CLH [9] [mL/min/g] | Vd [10] [L/kg] | bioavailability [11] [%] | bioavailability [12] [%] | CLH [13] [mL/min/g] | CL free [14] [mL/min/kg] | Vd [15] [L/kg] | QH [16] [%] | SMILES |
| --- | --- | --- | --- | --- | --- | --- | --- | --- | --- | --- | --- | --- | --- | --- | --- | --- | --- |
| 102 | 29 | 36 | 0.8 | 18.3 | 32 | > 1000 | 120 | 3.2 | < 0.8 | 2.2 | 34 | 35 | 0.81 | 96 | 2.1 | – | CNC(=O)c1cc(C(=O)N[C@H]2C[C@@H]2C)cc([C@@H](O)c2ccccc2)n1 |
| 23 | 52 | 72 | < 0.45 | 14.5 | 9.4 | 575 (≈ 1510 µM) | 90 | 3.4 | 1.27 | 2.1 | 17 | 65 | < 0.65 | 142 | 0.9 | – | CNC(=O)c1cc(C(=O)N[C@H]2[C@@H]3COC[C@@H]32)cc(C(OC)c2ccccc2)n1 (some centres undefined) |
| 122 | 22 | 24 | < 0.45 | 21.5 | 43 | 112 (≈ 319 µM) | 18 | 3.5 | 1.4 | 1.7 | 62 | 10 | 0.76 | 168 | 1.4 | 80 | CNC(=O)c1cc(C(=O)N[C@H]2[C@@H]3COC[C@@H]32)cc(Cc2ccccc2)n1 |
